Measurements from patent publication US6641802B2, “Amino acid compounds and photoprotecting compositions comprised thereof” (Societe L'Oreal S.A., priority 2000, dated 2003).

Legend:
[1] = UV absorption spectrum of the compound as a 5% dispersion in liquid petrolatum (total transmission and reflection, spectrophotometer with integrating sphere); format: physicochemical; details: 60 μm film
Description: The UV absorption spectrum of the compound was measured as a 5% dispersion in liquid petrolatum. The total transmission and reflection of the dispersion was determined on a 60 μm film with a spectrophotometer equipped with an integrating sphere.
The UV absorption spectrum of the compound was measured as a 5% dispersion in liquid petrolatum. The total transmission and reflection of the dispersion was determined on a 60 μm film with a spectrophotometer equipped with an integrating sphere (8 trials).

| melting point [°C] | absorption maximum [1] [nm] | shoulder (first shoulder) [1] [nm] | optical density at 310 nm [1] | Structure (SMILES) |
| --- | --- | --- | --- | --- |
| > 260 | 260 | 305 | 0.8 | N[C@@H](CCCCNC(=O)C=Cc1ccccc1)C(=O)O [Example 1, N^ε-cinnamoyl-L-lysine] |
| > 260 | 300 | 320 | 0.4 | COc1ccc(C=CC(=O)NCCCCC(N)C(=O)O)cc1 (centres unmarked) [Example 2] |
